{"source": "paper PMC3040809", "about": "(Amino Acids, 2010)", "key": {"[1]": {"settings": "physiological pH; ref Lenzen and Munday [1991]; cited from earlier work"}, "hOGT": {"biological_target": "T1, hOGT (Homo sapiens, UniProt O15294)", "T1 sequence (O15294 26-1036 isoform O15294-3)": "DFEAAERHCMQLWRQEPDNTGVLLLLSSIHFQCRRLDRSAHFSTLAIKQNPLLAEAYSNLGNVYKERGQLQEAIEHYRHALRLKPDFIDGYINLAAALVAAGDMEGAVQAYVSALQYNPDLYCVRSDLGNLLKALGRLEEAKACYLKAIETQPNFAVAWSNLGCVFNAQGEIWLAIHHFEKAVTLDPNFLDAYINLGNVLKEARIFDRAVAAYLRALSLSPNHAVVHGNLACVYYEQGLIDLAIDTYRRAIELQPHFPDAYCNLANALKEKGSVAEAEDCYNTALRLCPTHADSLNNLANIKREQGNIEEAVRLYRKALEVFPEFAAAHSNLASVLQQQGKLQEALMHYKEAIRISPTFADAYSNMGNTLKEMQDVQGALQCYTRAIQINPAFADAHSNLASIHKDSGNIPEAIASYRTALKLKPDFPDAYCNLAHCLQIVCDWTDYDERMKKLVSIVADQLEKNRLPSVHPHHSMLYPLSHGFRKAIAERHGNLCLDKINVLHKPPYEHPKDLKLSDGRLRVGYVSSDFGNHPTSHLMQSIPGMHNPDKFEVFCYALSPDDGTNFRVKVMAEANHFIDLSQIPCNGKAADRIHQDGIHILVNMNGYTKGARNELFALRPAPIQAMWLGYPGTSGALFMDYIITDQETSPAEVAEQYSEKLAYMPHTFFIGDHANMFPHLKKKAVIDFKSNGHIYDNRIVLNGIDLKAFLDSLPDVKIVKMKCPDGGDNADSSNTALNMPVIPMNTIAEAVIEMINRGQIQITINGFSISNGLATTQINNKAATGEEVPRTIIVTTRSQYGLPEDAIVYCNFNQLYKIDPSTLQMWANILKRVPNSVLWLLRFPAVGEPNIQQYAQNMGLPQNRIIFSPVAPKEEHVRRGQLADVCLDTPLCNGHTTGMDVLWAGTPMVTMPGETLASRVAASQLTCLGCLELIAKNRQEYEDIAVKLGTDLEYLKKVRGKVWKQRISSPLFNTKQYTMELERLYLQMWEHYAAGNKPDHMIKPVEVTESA", "format": "biochemical"}, "[2]": {"tested_on": "cellular levels of O-GlcNAcylation", "settings": "ref Liu et al. [2005], [2006], [2007]; Noach et al. [2007]; Kang et al. [2008]; cited from earlier work"}}}
{"smiles": "O=C1NC(=O)C(=O)C(=O)N1", "note": "[Alloxan]", "values": [{"measurement": "half-life time", "setting": "[1]", "result": 1.5, "unit": "min"}, {"measurement": "IC50", "setting": "hOGT", "result": "18 ± 1", "unit": "µM"}, {"measurement": "concentration required to decrease cellular levels of O-GlcNAcylation", "setting": "[2]", "result": "millimolar concentrations"}]}
